Values after ≈ are worked out from the molar mass of the structure shown. Where two headings read alike, the source gives them in different places. Each block holds one molecule with its values, some of them ahead of it.
How the values were obtained:
Aureobasidium pullulans = experiment: preservative for latex paints; assay type: cell-based; conditions: for Surface (growth on the surface of painted square): none, medium or heavy; for Zone (zone of inhibition): listed as CH3, Cl, Cl
Procedure: Various quantities of the chemical were incorporated into a white exterior vinyl acetate paint. Whatman #30 filter paper was painted with one coat of paint on each side. One inch squares were cut and placed in Petri dishes on a malt agar.
The surface of both the agar and the painted squares were inoculated with a spore suspension of Aureobasidium pullulans. The plates were examined for zones of inhibition and surface growth after three weeks incubation in a humidity chamber at 27°-28°.
Various quantities of 4,5-dichloro-2-methyl-4-isothiazolin-3-thione were incorporated into a white exterior vinyl acetate paint and tested as described in Example IV.

Ps. aeruginosa = experiment: preservative for cutting oil emulsions; assay type: cell-based; conditions: for Minimum Inhibitory Concentration: listed as CH3, Cl; for MIC: Pseudomonas aeruginosa
Procedure: Various aliquots of a 6% solution of the chemical in ethanol were added to cutting oil emulsions prepared by diluting Kutwell 30 cutting oil concentrate 1 to 30 with water. These samples were inoculated with a culture of Ps. aeruginosa and incubated at 28° on a rotary shaker. At weekly intervals the samples were examined for microorganisms and then reinoculated and incubated.

[1] = 168 h, cutting oil emulsion, incubation 1 week, 28°, read-out: Minimum Inhibitory Concentration
[2] = 336 h, cutting oil emulsion, incubation 2 weeks, 28°, read-out: Minimum Inhibitory Concentration
[3] = 504 h, cutting oil emulsion, incubation 3 weeks, 28°, read-out: Minimum Inhibitory Concentration
[4] = 672 h, cutting oil emulsion, incubation 4 weeks, 28°, read-out: Minimum Inhibitory Concentration
[5] = 168 h, read-out: Minimum Inhibitory Concentration, cutting oil emulsion, incubation 1 week, 28°
[6] = 336 h, read-out: Minimum Inhibitory Concentration, cutting oil emulsion, incubation 2 weeks, 28°
[7] = 504 h, read-out: Minimum Inhibitory Concentration, cutting oil emulsion, incubation 3 weeks, 28°
[8] = 672 h, read-out: Minimum Inhibitory Concentration, cutting oil emulsion, incubation 4 weeks, 28°

Compound: CC[n+]1sc(Cl)c(Cl)c1Cl [Et, Cl, Cl, Cl, O3SCF3]
zone of inhibition at 0.25 % (Aureobasidium pullulans; Aureobasidium pullulans, 504 h, Conc. 0.25% in vinyl acetate paint, three weeks, 27°-28°, read-out: Zone (zone of inhibition)): 20 mm | zone of inhibition at 0.5 % (Aureobasidium pullulans; Aureobasidium pullulans, 504 h, Conc. 0.5% in vinyl acetate paint, three weeks, 27°-28°, read-out: Zone (zone of inhibition)): 20 mm | Surface (growth on the surface of painted square) (Aureobasidium pullulans; Conc. 0.25% in vinyl acetate paint, three weeks, 27°-28°): None | Surface (growth on the surface of painted square) (Aureobasidium pullulans; Conc. 0.5% in vinyl acetate paint, three weeks, 27°-28°): None

Compound: C[n+]1sc(Cl)c(Cl)c1Cl [No. 1 (Table I), 2-Methyl-3,4,5-trichloroisothiazolium fluorosulfonate]
zone of inhibition at 0.5 % (Aureobasidium pullulans; Aureobasidium pullulans, 504 h, read-out: Zone (zone of inhibition), Conc. 0.5% in vinyl acetate paint, three weeks, 27°-28°): > 20 mm | Zone (zone of inhibition) (Aureobasidium pullulans; Conc. 0.25% in vinyl acetate paint, three weeks, 27°-28°, O3SF): 0 mm | Minimum Inhibitory Concentration (Ps. aeruginosa; cutting oil emulsion, incubation 1 week, 28°, Cl, O3SF): < 16 µg/mL | Minimum Inhibitory Concentration (Ps. aeruginosa; cutting oil emulsion, incubation 2 weeks, 28°, Cl, O3SF): < 16 µg/mL | Minimum Inhibitory Concentration (Ps. aeruginosa; cutting oil emulsion, incubation 3 weeks, 28°, Cl, O3SF): < 16 µg/mL | Minimum Inhibitory Concentration (Ps. aeruginosa; cutting oil emulsion, incubation 4 weeks, 28°, Cl, O3SF): < 16 µg/mL

MIC (Ps. aeruginosa; [1]): 16 µg/mL (≈ 74.7 µM) | MIC (Ps. aeruginosa; [2]): 32 µg/mL (≈ 149 µM) | MIC (Ps. aeruginosa; [3]): 62 µg/mL (≈ 290 µM) | MIC (Ps. aeruginosa; [4]): 62 µg/mL (≈ 290 µM)
Compound: CCn1sc(Cl)c(Cl)c1=S [No. 2 (Table VIII)]

Compound: C[n+]1sc(Cl)c(Cl)c1Cl [No. 3 (Table I), 2-Methyl-3,4,5-trichloroisothiazolium hexachloroantimonate]
Zone (zone of inhibition) (Aureobasidium pullulans; Conc. 0.25% in vinyl acetate paint, three weeks, 27°-28°, SbCl6): 20 mm | Zone (zone of inhibition) (Aureobasidium pullulans; Conc. 0.5% in vinyl acetate paint, three weeks, 27°-28°, SbCl6): 20 mm | Minimum Inhibitory Concentration (Ps. aeruginosa; cutting oil emulsion, incubation 1 week, 28°, Cl, SbCl6): 2 µg/mL | Minimum Inhibitory Concentration (Ps. aeruginosa; cutting oil emulsion, incubation 2 weeks, 28°, Cl, SbCl6): 2 µg/mL | Minimum Inhibitory Concentration (Ps. aeruginosa; cutting oil emulsion, incubation 3 weeks, 28°, Cl, SbCl6): 2 µg/mL | Minimum Inhibitory Concentration (Ps. aeruginosa; cutting oil emulsion, incubation 4 weeks, 28°, Cl, SbCl6): 64 µg/mL

Compound: Cn1sccc1=S [No. 3 (Table VIII)]
MIC (Ps. aeruginosa; [5]): 125 µg/mL (≈ 953 µM) | MIC (Ps. aeruginosa; [6]): 250 µg/mL (≈ 1910 µM) | MIC (Ps. aeruginosa; [7]): 250 µg/mL (≈ 1910 µM) | MIC (Ps. aeruginosa; [8]): 250 µg/mL (≈ 1910 µM)

Compound: C[n+]1sc(Cl)c(Cl)c1Cl.O=S(=O)([O-])C(F)(F)F [No. 4 (Table I), 2-Methyl-3,4,5-trichloroisothiazolium trifluoromethane sulfonate]
MIC (Ps. aeruginosa; [5]): 2 µg/mL | MIC (Ps. aeruginosa; [6]): 2 µg/mL | MIC (Ps. aeruginosa; [7]): 16 µg/mL | MIC (Ps. aeruginosa; [8]): 64 µg/mL

Compound: Cn1scc(Cl)c1=S [No. 4 (Table VIII)]
MIC (Ps. aeruginosa; [5]): < 32 µg/mL | MIC (Ps. aeruginosa; [6]): 62 µg/mL (≈ 374 µM) | MIC (Ps. aeruginosa; [7]): 62 µg/mL (≈ 374 µM) | MIC (Ps. aeruginosa; [8]): 62 µg/mL (≈ 374 µM)

MIC (Ps. aeruginosa; [1]): 250 µg/mL (≈ 1050 µM) | MIC (Ps. aeruginosa; [2]): 125 µg/mL (≈ 526 µM) | MIC (Ps. aeruginosa; [3]): 125 µg/mL (≈ 526 µM) | MIC (Ps. aeruginosa; [4]): 62 µg/mL (≈ 261 µM)
Compound: CCOC(=O)c1sn(C)c(=S)c1Cl [No. 5 (Table VIII)]

MIC (Ps. aeruginosa; [1]): 16 µg/mL (≈ 83.9 µM) | MIC (Ps. aeruginosa; [2]): 125 µg/mL (≈ 656 µM) | MIC (Ps. aeruginosa; [3]): 250 µg/mL (≈ 1310 µM) | MIC (Ps. aeruginosa; [4]): 250 µg/mL (≈ 1310 µM)
Compound: Cn1sc(C#N)c(Cl)c1=S [No. 6 (Table VIII)]

MIC (Ps. aeruginosa; [1]): 4 µg/mL | MIC (Ps. aeruginosa; [2]): 8 µg/mL | MIC (Ps. aeruginosa; [3]): 8 µg/mL | MIC (Ps. aeruginosa; [4]): 32 µg/mL
Compound: CC[n+]1sc(Cl)c(Cl)c1Cl.F[B-](F)(F)F [No. 7 (Table I), 2-Ethyl-3,4,5-trichloroisothiazolium tetrafluoroborate]

Compound: CCC[n+]1sc(Cl)c(Cl)c1Cl.O=S(=O)([O-])C(F)(F)F [No. 10 (Table I), 2-Propyl-3,4,5-trichloroisothiazolium trifluoromethane sulfonate]
MIC (Ps. aeruginosa; [1]): < 32 µg/mL | MIC (Ps. aeruginosa; [2]): < 32 µg/mL | MIC (Ps. aeruginosa; [3]): < 32 µg/mL | MIC (Ps. aeruginosa; [4]): < 32 µg/mL

Compound: C[n+]1sccc1Cl [No. 13 (Table I), 3-Chloro-2-methylisothiazolium fluorosulfonate]
Minimum Inhibitory Concentration (Ps. aeruginosa; cutting oil emulsion, incubation 1 week, 28°, H, O3SF): 32 µg/mL | Minimum Inhibitory Concentration (Ps. aeruginosa; cutting oil emulsion, incubation 2 weeks, 28°, H, O3SF): 32 µg/mL | Minimum Inhibitory Concentration (Ps. aeruginosa; cutting oil emulsion, incubation 3 weeks, 28°, H, O3SF): 32 µg/mL | Minimum Inhibitory Concentration (Ps. aeruginosa; cutting oil emulsion, incubation 4 weeks, 28°, H, O3SF): 32 µg/mL

Compound: C[n+]1sccc1Cl [No. 14 (Table I)]
Minimum Inhibitory Concentration (Ps. aeruginosa; cutting oil emulsion, incubation 1 week, 28°, H, O3SOMe): 64 µg/mL | Minimum Inhibitory Concentration (Ps. aeruginosa; cutting oil emulsion, incubation 2 weeks, 28°, H, O3SOMe): 64 µg/mL | Minimum Inhibitory Concentration (Ps. aeruginosa; cutting oil emulsion, incubation 3 weeks, 28°, H, O3SOMe): 64 µg/mL | Minimum Inhibitory Concentration (Ps. aeruginosa; cutting oil emulsion, incubation 4 weeks, 28°, H, O3SOMe): 64 µg/mL

Compound: C[n+]1sccc1Cl.O=[N+]([O-])[O-] [No. 15 (Table I), 2-Methyl-3-chloroisothiazolium nitrate]
MIC (Ps. aeruginosa; [5]): 8 µg/mL | MIC (Ps. aeruginosa; [6]): 8 µg/mL | MIC (Ps. aeruginosa; [7]): 8 µg/mL | MIC (Ps. aeruginosa; [8]): 8 µg/mL
